From patent US7384734B2, “Compositions and methods for determining the susceptibility of a pathogenic virus to protease inhibitors” (Monogram Biosciences, Inc., priority 2002, dated 2008)

Test system: HIV-1 from patient plasma samples
Test: PHENOSENSE HIV phenotypic drug susceptibility assay (fold change in IC50 versus NL4-3 reference strain)
Format: cell-based
Excerpt: A “fold change” is a numeric comparison of the drug susceptibility of a patient virus and a drug-sensitive reference virus. It is the ratio of the Patient IC50 to the drug-sensitive reference IC50, i.e., Patient IC50/Reference IC50=Fold Change (“FC”). […] A fold change less than 1 indicates the patient virus is more sensitive than the drug-sensitive reference virus. […] A fold change less than the clinical cutoff value means the patient virus is sensitive to that drug.
In one embodiment, the phenotypic analysis is performed using PHENOSENSE™ (ViroLogic Inc., South San Francisco, Calif.). See Petropoulos et al., 2000, Antimicrob. Agents Chemother. 44:920-928; U.S. Pat. Nos. 5,837,464 and 6,242,187. PHENOSENSE™ is a phenotypic assay that achieves the benefits of phenotypic testing and overcomes the drawbacks of previous assays.
A resistance test vector (“RTV”) can then be constructed by incorporating the amplified viral gene sequences into a replication defective viral vector by using any method known in the art of incorporating gene sequences into a vector. In one embodiment, restrictions enzymes and conventional cloning methods are used. See Maniatis et al., 1989, Molecular Cloning: A Laboratory Manual, Cold Spring Harbor Laboratory, N.Y. and Ausubel et al., 1989, Current Protocols in Molecular Biology, Greene Publishing Associates and Wiley Interscience, N.Y. In some embodiments, ApaI and PinAI restriction enzymes are used. Preferably, the replication defective viral vector is the indicator gene viral vector (“IGVV”). In some embodiments, the viral vector contains a means for detecting replication of the RTV. Preferably, the viral vector contains a luciferase expression cassette.
The assay can be performed by first co-transfecting host cells with RTV DNA and a plasmid that expresses the envelope proteins of another retrovirus, for example, amphotropic murine leukemia virus (MLV). Following transfection, virus particles can be harvested and used to infect fresh target cells. The completion of a single round of viral replication can be detected by the means for detecting replication contained in the vector. In one embodiment, the completion of a single round of viral replication results in the production of luciferase. Serial concentrations of anti-viral agents can be added at either the transfection step or the infection step.
Susceptibility to the anti-viral agent can be measured by comparing the replication of the vector in the presence and absence of the anti-viral agent. For example, susceptibility to the anti-viral agent can be measured by comparing the luciferase activity in the presence and absence of the anti-viral agent. Susceptible viruses would produce low levels of luciferase activity in the presence of anti-viral agents, whereas viruses with reduced susceptibility would produce higher levels of luciferase activity.
The phenotypic assay was conducted using the PHENOSENSE™ (Virologic, South San Francisco, Calif.) HIV assay (Petropoulos et al., 2000, Antimicrob. Agents Chemother. 44:920-928; U.S. Pat. Nos. 5,837,464 and 6,242,187). Plasma samples were collected from HIV-1-infected patients. Repeat samples from the same patient were removed to prevent possible bias resulting from unique combinations of mutations.
The genotype data was obtained by sequencing the protease of the HIV-1 present in each patient's sample and determining the sequence changes with respect to the sequence of the NL4-3 (GenBank Accession No. AF324493) HIV. The amino sequence for the NL4-3 protease is provided in SEQ. ID. No. 1 (FIG. 12A) and the nucleic acid sequence for the NL4-3 protease gene is provided in SEQ. ID. No. 2 (FIG. 12B).

[1] = genotype group: 32, 46, 47, 54, n=4
[2] = genotype group: 32, 47, 54, 84, n=5
[3] = genotype group: 32, 47, 54, n=17
[4] = genotype group: 46 (M46I or L), 54, n=16
[5] = genotype group: 46, 54, 84, n=29
[6] = genotype group: 47, 54, 84, n=3
[7] = genotype group: 54 (I54L or M only), n=9
[8] = genotype group: not containing any tested mutation, n=1096
[9] = genotype group: protease mutation 32, n=26
[10] = genotype group: wild-type (all primary positions), n=623

Compound | median FC in each group (each group carrying APV resistance mutations (Table 9)) [fold] | Median FC (genotype group: 32, 46, 47, 54, 84, n=6) | Median FC [1] | Median FC [2] | Median FC [3] | Median FC (genotype group: 32, 47, n=23) | Median FC (genotype group: 32, 84, n=3) | Median FC [4] | Median FC [5] | Median FC [6] | Median FC (genotype group: 47, 54, n=3) | Median FC (genotype group: 47, 84, n=4) | Median FC (genotype group: 47, n=8) | Median FC (genotype group: 50, n=42) | Median FC [7] | Median FC (genotype group: 54, 84, n=22) | Median FC (genotype group: 84, n=247) | Median FC [8] | Median FC [9] | Median FC [10]
CC(C)CN(C[C@@H](O)[C@H](Cc1ccccc1)NC(=O)O[C@H]1CCOC1)S(=O)(=O)c1ccc(N)cc1 [APV, amprenavir] | ≥ 9.5 | 130 | 130 | 130 | 40 | 12 | 51 | 84 | 47 | 24 | 42 | 12 | 26 | 20 | 22 | 67 | 11 | 1.6 | 9.5 | 0.6
Cc1cccc(C)c1OCC(=O)N[C@@H](Cc1ccccc1)[C@@H](O)C[C@H](Cc1ccccc1)NC(=O)[C@H](C(C)C)N1CCCNC1=O [LPV, lopinavir] |  |  | 208 | 227 | 146 | 7.5 | 124 | 138 | 30 | 20 | 88 | 28 |  | 54 | 160 | 93 | 7.1 | 2.1 | 12 | 0.6
